The test system of experiment [1] is sorghum. The experiment in a line: Postemergent control of plant species. Format: in vivo, Sorghum vulgare. The following applies: Sorghum, post-emergence, 336 h, read-out: percent postemergent control. As for the experimental part: (§1) In representative operations, each compound to be utilized in a series of tests is dissolved in acetone to one-half of the final volume (twice the final concentration) to be used and the acetone solution in each case is admixed with an equal volume of water containing 0.1 percent by weight of surface active material. The compositions, generally in the nature of an emulsion, were employed to spray separate respective plant species which had been grown to a 2-4 leaf stage in soil of good nutrient content in a greenhouse. The various beds were positioned side by side and exposed to substantially identical conditions of temperature and light. Each bed was maintained so as to prevent any interaction with test compounds in different seed beds. Other plants were left untreated to serve as controls. After treatment, the plants were maintained for about two weeks under greenhouse conditions conducive for good plant growth and watered as necessary. Control refers to the reduction in growth compared to the observed results of the same untreated species.

Experiment [2] deals with pigweed. Nature of the experiment: Postemergent control of plant species. The following applies: Amaranthus retroflexus, post-emergence, 336 h, read-out: percent postemergent control. Format: in vivo, Amaranthus spp. How it is done: as §1
The subject of experiment [3] is corn. The experiment in a line: Postemergent control of plant species. Format: in vivo, Zea mays. The following applies: Zea mays, post-emergence, 336 h, read-out: percent postemergent control. As for the experimental part:
as §1

For experiment [4], the system named is cotton. The experiment in a line: Postemergent control of plant species. Format: in vivo, Gossypium spp. The following applies: Gossypium hirsutum, post-emergence, 336 h, read-out: percent postemergent control. As for the experimental part:
as §1

In experiment [5] the test system is rape. Nature of the experiment: Postemergent control of plant species. Format: in vivo, Brassica napus. The following applies: Brassica napus, post-emergence, 336 h, read-out: percent postemergent control. As for the experimental part:
as §1

The subject of experiment [6] is annual morning glory. Nature of the experiment: Postemergent control of plant species. The following applies: Ipomoea, post-emergence, 336 h, read-out: percent postemergent control. Type of experiment: in vivo, Ipomoea spp. How it is done:
as §1

The subject of experiment [7] is wild oats. Nature of the experiment: Postemergent control of plant species. Type of experiment: in vivo, Avena fatua. The following applies: Avena fatua, post-emergence, 336 h, read-out: percent postemergent control. How it is done: as §1
Experiment [8] concerns sugar beet. Nature of the experiment: Postemergent control of plant species. Format: in vivo, Beta saccharifera. The following applies: Beta vulgaris, post-emergence, 336 h, read-out: percent postemergent control. As for the experimental part: as §1
The test system of experiment [9] is jimsonweed. The experiment in a line: Postemergent control of plant species. Format: in vivo, Datura stramonium. The following applies: Datura stramonium, post-emergence, 336 h, read-out: percent postemergent control. As for the experimental part: as §1
Experiment [10] concerns johnson grass. Nature of the experiment: Postemergent control of plant species. Type of experiment: in vivo, Sorghum halepense. The following applies: Sorghum halepense, post-emergence, 336 h, read-out: percent postemergent control. As for the experimental part:
as §1

Experiment [11] relates to velvetleaf. The experiment in a line: Postemergent control of plant species. The following applies: Abutilon theophrasti, post-emergence, 336 h, read-out: percent postemergent control. Type of experiment: in vivo, Abutilon theophrasti. How it is done:
as §1

Experiment [12] relates to soybean. Nature of the experiment: Postemergent control of plant species. Format: in vivo, Glycine max. The following applies: Glycine max, post-emergence, 336 h, read-out: percent postemergent control. As for the experimental part: as §1
The subject of experiment [13] is yellow nutsedge. Nature of the experiment: Postemergent control of plant species. The following applies: Cyperus, post-emergence, 336 h, read-out: percent postemergent control. Format: in vivo, Cyperus esculentus. How it is done:
as §1

Experiment [14] relates to yellow foxtail. Nature of the experiment: Postemergent control of plant species. Type of experiment: in vivo, Setaria lutescens. The following applies: Setaria, post-emergence, 336 h, read-out: percent postemergent control. How it is done:
as §1

Experiment [15] deals with barnyardgrass. Nature of the experiment: Postemergent control of plant species. Type of experiment: in vivo, Echinochloa crusgalli. The following applies: Echinochloa crus-galli, post-emergence, 336 h, read-out: percent postemergent control. How it is done: as §1
Experiment [16] deals with rice. Nature of the experiment: Postemergent control of plant species. Type of experiment: in vivo, Oryza sativa. The following applies: Oryza sativa, post-emergence, 336 h, read-out: percent postemergent control. How it is done: as §1
Experiment [17] has as its system wheat. The experiment in a line: Postemergent control of plant species. Type of experiment: in vivo, Triticum aestivum. The following applies: Triticum aestivum, post-emergence, 336 h, read-out: percent postemergent control. As for the experimental part:
as §1

For experiment [18], the system named is crabgrass. Nature of the experiment: Postemergent control of plant species. The following applies: Digitaria sanguinalis, post-emergence, 336 h, read-out: percent postemergent control. Type of experiment: in vivo, Digitaria spp. How it is done: as §1
Experiment [19] has as its system nitrification of ammonium nitrogen. The experiment in a line: Suppression of nitrification of ammonium nitrogen in soil. The following applies: 27° C. Summed up: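 Value is % NH4-N remaining after a two-week, 27° C incubation of treated soil held at 1/3 bar tension moisture. Nitrate was measured with an ion-selective electrode after extraction with ammonium sulfate solution and 10 min shaking.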

Turning to `CSc1cccc(Cl)c1NS(=O)(=O)c1nc2nc(C)cc(C)n2n1` [Compound 69], the plant injury at 500 ppm was determined as 80% in experiment [1]; 90% in experiment [3]; 90% in [4]; 90% in experiment [5]; 100% in experiment [8]; 40% in experiment [12]. For the same compound, the plant injury at 500 ppm in experiment [16] and in experiment [17] was 0% each time. For the same compound, the pest or weed control at 500 ppm in [2] was 100%; in [6], 80%; in experiment [7], 0%; in [9], 90%; in experiment [10], 95%; in [11], 85%. Besides, the pest or weed control at 500 ppm in [13] came to 80%; in experiment [14], 90%; in experiment [15] it was 80%; in experiment [18], 80%.

For `Cc1cc(C)n2nc(S(=O)(=O)N(C)c3c(Cl)cccc3Cl)nc2n1` [Compound 260, 5,7,N-trimethyl-N-(2,6-dichlorophenyl)-1,2,4-triazolo[1,5-a]pyrimidine-2-sulfonamide], the plant injury at 500 ppm in experiment [1] worked out at 25%; in experiment [3] it was 0%; in experiment [4], 80%; in [5], 95%; in experiment [8] it was 100%; in experiment [12], 90%. The plant injury at 500 ppm in [16] and in experiment [17] was 0% throughout. The pest or weed control at 500 ppm in [2] was found to be 45%; in [6] it was 40%; in [7], 0%; in experiment [9], 95%; in experiment [10], 95%; in experiment [11], 90%. Further, the pest or weed control at 500 ppm in experiment [13] was 0%; in experiment [14], 90%; in [15], 50%; in [18] it was 0%. The “% NH4-N Remaining After 2 Weeks Incubation” value was 0% in [19] (0.06 ppm), 14% in [19] (0.25 ppm), 37% in experiment [19] (1 ppm) and 45% in experiment [19] (4 ppm).

As to `COC(=O)c1cccc(C)c1N(C)S(=O)(=O)c1nc2nc(C)cc(C)n2n1` [Compound 261], the plant injury at 500 ppm in experiment [1] stood at 30%; in experiment [3] it was 0%; in experiment [4], 60%; in experiment [5] it was 95%; in experiment [8], 90%; in experiment [12], 90%. Also, the plant injury at 500 ppm in experiment [16] and in experiment [17] was 0% in each case. Besides, the pest or weed control at 500 ppm in experiment [2] stood at 65%; in experiment [6] it was 90%; in experiment [7], 0%; in [9], 95%; in [10] it was 100%; in [11], 95%. In addition, the pest or weed control at 500 ppm in [13] came to 0%; in experiment [14] it was 95%; in experiment [15] it was 20%; in experiment [18] it was 10%. The “% NH4-N Remaining After 2 Weeks Incubation” value in experiment [19] (0.06 ppm) is 0%; in [19] (0.25 ppm), 0%; in experiment [19] (1 ppm), 21%; in [19] (4 ppm), 18%.

Regarding `C=CCN(c1c(Cl)cccc1Cl)S(=O)(=O)c1nc2nc(C)cc(C)n2n1` [Compound 263], the plant injury at 500 ppm came to 70% in experiment [1]; 0% in [3]; 50% in [4]; 100% in experiment [5]; 100% in [8]; 0% in [12]. Moreover, the figures for the plant injury at 500 ppm in experiment [16] and in experiment [17] were 85% and 0%, respectively. Besides, the pest or weed control at 500 ppm in [2] came to 90%; in experiment [6], 80%; in [7] it was 0%; in [9], 80%; in experiment [10] it was 100%; in experiment [11] it was 40%. The pest or weed control at 500 ppm in experiment [13] is 0%; in experiment [14], 95%; in [15], 40%; in [18], 90%. In addition, the “% NH4-N Remaining After 2 Weeks Incubation” value is reported as 0% in experiment [19] (0.06 ppm), 0% in [19] (0.25 ppm), 87% in experiment [19] (1 ppm) and 11% in experiment [19] (4 ppm).

In the case of `Cc1cc(C)n2nc(S(=O)(=O)N(Cc3ccccc3)c3c(Cl)cccc3Cl)nc2n1` [Compound 265], the plant injury at 500 ppm in experiment [1] was found to be 0%; in experiment [3], 0%; in experiment [4], 0%; in experiment [5] it was 60%; in experiment [8] it was 80%; in [12], 40%. Moreover, the plant injury at 500 ppm in [16] and in [17] was 0% throughout. The pest or weed control at 500 ppm came out at 70% in experiment [2]; 60% in experiment [6]; 0% in [7]; 0% in experiment [9]; 0% in experiment [10]; 0% in experiment [11]. Besides, the pest or weed control at 500 ppm in experiment [13], in experiment [14], in experiment [15] and in [18] was 0% each time. For the same compound, the “% NH4-N Remaining After 2 Weeks Incubation” value in experiment [19] (0.06 ppm) is 0%; in experiment [19] (0.25 ppm) it was 0%; in experiment [19] (1 ppm), 0%; in experiment [19] (4 ppm) it was 17%.

For `CCOC(=O)CN(c1c(C)cccc1C(=O)OC)S(=O)(=O)c1nc2nc(C)cc(C)n2n1` [Compound 266], the plant injury at 500 ppm was 0% in experiment [1]; 0% in experiment [3]; 10% in experiment [4]; 75% in experiment [5]; 30% in experiment [8]; 80% in [12]. The plant injury at 500 ppm is 40% in [16] and 0% in experiment [17]. The pest or weed control at 500 ppm in [2] was determined as 25%; in experiment [6], 85%; in [7], 0%; in experiment [9], 90%; in [10] it was 0%; in experiment [11], 75%. Also, the pest or weed control at 500 ppm in experiment [13] is 0%; in [14] it was 80%; in experiment [15], 75%; in experiment [18], 70%. Moreover, the “% NH4-N Remaining After 2 Weeks Incubation” value was 0% in experiment [19] (0.06 ppm), 0% in [19] (0.25 ppm), 2% in [19] (1 ppm) and 13% in experiment [19] (4 ppm).

The values above are taken from patent US4740233A, “Substituted 1,2,4-triazolo[1,5-a]-pyrimidine-2-sulfonamides and compositions and methods of controlling undesired vegetation and suppressing the nitrification of ammonium nitrogen in soil” (The Dow Chemical Company, priority 1986, dated 1988).
